Reference: patent US10844071B2, “Substituted [1,2,3]triazolo[4,5-d]pyrimidines that lower stress-induced p-tau” (BUCK INSTITUTE FOR RESEARCH ON AGING, priority 2015, dated 2020)
Converted amounts (≈) assume the structure as drawn. “Also recorded” adds a separate entry of the source. Where two headings read alike, the source gives them in different places. One block for each compound: values may come before it.

Experiments:
CRF1 = target: T1, CRF1 (Homo sapiens, UniProt P34998); test: CRF1 binding (Ki)
T1 sequence (P34998 24-415): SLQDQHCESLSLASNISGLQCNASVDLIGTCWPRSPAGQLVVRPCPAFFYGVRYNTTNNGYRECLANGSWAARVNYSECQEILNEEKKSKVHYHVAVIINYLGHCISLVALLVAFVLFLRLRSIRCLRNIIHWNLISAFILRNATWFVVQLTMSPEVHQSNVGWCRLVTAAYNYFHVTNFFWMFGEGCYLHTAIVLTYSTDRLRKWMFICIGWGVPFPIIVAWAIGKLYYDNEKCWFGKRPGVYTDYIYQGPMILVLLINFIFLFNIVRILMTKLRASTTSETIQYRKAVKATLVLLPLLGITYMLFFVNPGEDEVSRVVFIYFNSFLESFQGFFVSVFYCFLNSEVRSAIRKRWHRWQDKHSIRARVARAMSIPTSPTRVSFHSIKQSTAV

Solubility in DMSO = assay type: physicochemical; conditions: organic solvent or mixture, read-out: Solubility
PAMPA = assay type: in vitro ADME; conditions: Tertiary
SH-SY5Y cells [1] = test: Primary screen in SH-SY5Y cells (tau, p-tau); assay type: cell-based
Method: (§1) As described below, in vitro studies were performed using SHSY-5Y cells. These cells are a useful neurological model that differentiate into cells with morphological and biochemical characteristics of mature neurons including mature isoforms of tau.
However, J04 did lower p-tau to the same level as J03 and significant may not have been reached due to low N #.

CRFR2 = target: T2, CRFR2 (Homo sapiens, UniProt Q13324); test: CRFR2 binding (Ki)
T2 sequence (Q13324 1-411): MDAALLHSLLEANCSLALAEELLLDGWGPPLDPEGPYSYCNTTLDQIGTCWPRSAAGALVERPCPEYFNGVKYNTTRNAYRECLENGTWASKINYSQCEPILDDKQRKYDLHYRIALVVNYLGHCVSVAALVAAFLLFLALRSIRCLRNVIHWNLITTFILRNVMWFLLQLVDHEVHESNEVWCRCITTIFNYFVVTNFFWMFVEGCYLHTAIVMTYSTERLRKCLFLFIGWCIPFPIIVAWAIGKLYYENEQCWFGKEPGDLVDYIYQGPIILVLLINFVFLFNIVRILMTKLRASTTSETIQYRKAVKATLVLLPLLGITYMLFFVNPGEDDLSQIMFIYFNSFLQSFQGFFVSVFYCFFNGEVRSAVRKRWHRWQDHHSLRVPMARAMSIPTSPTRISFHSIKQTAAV

SH-SY5Y cells [2] = test: Secondary screen in SH-SY5Y cells with CRF stimulation (tau, p-tau, sAPPα); assay type: cell-based
Method: as §1
In an initial study, SHSY-5Y cells were cultured without serum to induce differentiation and increase tau expression. […] The increases were proportional and both were about 50%. J03 (FIG. 4A) reduced the CRF-induced tau increases more than the p-tau increases. The increase in p-tau with CRF was expected, but the increase in tau less predictable as CRF reduces neuronal differentiation (see Chen et al. (2004) Proc. Natl. Acad. Sci. USA, 101(44): 15782-15787), however, it can increase tau accumulation.

J20 mice [3] = test: J17 pilot study in J20 mice (oral, 28 days); assay type: in vivo, mouse
Method: (§2) Animal experiments were performed using J20 mice. The J20 mouse is a model of for Alzheimer's disease. This model overexpresses human APP with two mutations linked to familial Alzheimer's disease (the APP KM670/671NL (Swedish) and […] (Indiana) mutations).
In a J17 pilot study (#1 pilot study) male and female J20 mice were housed singly and treated with J17 at 10 mkd by oral delivery for 28 days. […]

p-tau = test: Cortisol-induced (stress-induced) p-tau increase in vitro; assay type: cell-based
Excerpt: To identify therapeutic candidates, a clinical library of CRF-1R inhibitors to was screened to determine their effects on cortisol-induced p-tau increases. […] J03 was shown specifically to inhibit stress-induced p-tau increases by cortisol in vitro.

[4] = In vivo pharmacokinetics, brain and plasma levels; parameters: species or system mouse
J20 mice [5] = test: J03 pilot study #2 in J20 mice (oral, longer duration); assay type: in vivo, mouse; conditions: oral delivery
Method: as §2
Based on these promising results, the study was repeated (pilot study #2) with oral delivery and a longer duration.

J20 mice [6] = test: J03 pilot study #1 in J20 mice (SQ, 12 days); assay type: in vivo, mouse; conditions: SQ 10 mkd
Method: as §2
In pilot study #1, J20 mice housed singly were treated by SQ injection of J02 in PEG/b-MCD at 10 mkd for 12 days. NOR analysis of object memory (N=5/group) was performed. […] There was no difference in Aβ1-40 (panel B), but a decrease in Aβ1-42 (panel C).

[7] = SH-SY5Y cells, CRF-induced increase
[8] = Secondary (SH-Sy5Y, CRF stimulation)

- Ki (CRF1; Tertiary, read-out: CRF1 Ki): 7 nM
- Ki (CRF1; read-out: CRF-1 antagonist Ki): ~7.9 nM
- solubility (Solubility in DMSO): ~10 mM (≈ 3550 µg/mL)
- PAMPA (PAMPA): 0.92
- Ki (CRFR2): > 10000 nM
- brain levels ([4]; 10 mk subcutaneous (SQ) injection, J20 mice): low
- concentration at 2 h ([4]; J20, mouse, brain, two hours after oral dosing in formulation, first day of pilot study #2): 170 ng/g
- brain levels ([4]; end of pilot study #2, oral dosing): about 35 ng/g
SMILES: CCC(COC)n1nnc2c(Nc3ccc(OC)cc3C)nc(C)cc21 (stereo not shown) [Compound J03, N-(4-Methoxy-2-methylphenyl)-1-[1-(methoxymethyl)propyl]-6-methyl-1H-1,2,3-triazolo[4,5-c]pyridine-4-amine]
- Tau % (SH-SY5Y cells [1]; Primary (SH-SY5Y)): Unchanged
- p-tau (SH-SY5Y cells [1]; SH-SY5Y cells, no CRF): decreased
- p-tau/tau ratios (SH-SY5Y cells [2]; 50 and 100 nM CRF, FIG. 28 panel C): highly significantly decreased
- sAPPα (SH-SY5Y cells [2]; FIG. 28 panel D, significance for J03 at 100 nM CRF): trend for sAPPα to be higher
- p-tau after CRF exposure (SH-SY5Y cells [2]; [7]): reduces; also recorded: decreased
- tau after CRF exposure (SH-SY5Y cells [2]; [7]): reduces; also recorded: decreased
- sAPPα after CRF exposure (SH-SY5Y cells [2]; SH-SY5Y cells, FIG. 19): lower
- sAPPα (%) (SH-SY5Y cells [2]; [8]): Unchanged
- tau (SH-SY5Y cells [2]; absence of CRF and presence of 100 nM CRF, FIG. 28 panel A): significantly decreased
- p-tau (SH-SY5Y cells [2]; presence and absence of CRF, FIG. 28 panel B): significantly reduced
- novel object preference (J20 mice [3]; all mice): increased novel object preference more than 17
- sAPPα (J20 mice [3]; both genders): increase
- sAPPα/sAPPβ ratio (J20 mice [3]; males): slight increase
- activity (total interactions) (J20 mice [3]; not significant): lowered
- stress-induced p-tau increases by cortisol (p-tau): inhibit
- Aβ1-40 (J20 mice [5]): unchanged
- Aβ1-40/Aβ1-42 ratio (J20 mice [5]): unchanged
- Aβ1-42 (J20 mice [5]): unchanged
- novel location assay (J20 mice [5]): performed well
- novel object assay (J20 mice [5]): performed well
- sAPPα (J20 mice [5]): increased slightly
- sAPPα/sAPPβ ratio (J20 mice [5]): slightly increased
- sAPPβ (J20 mice [5]): unchanged
- p-tau (J20 mice [5]; decrease reached statistical significance): decreased
- Aβ1-40 (J20 mice [6]): no difference
- Aβ1-40/1-42 ratio (J20 mice [6]): significantly increased
- Aβ1-42 (J20 mice [6]): decrease
- P-tau (J20 mice [6]): significantly lower
- SAPP (sAPPα levels) (J20 mice [6]): very slightly increased
- sAPP/Aβ1-42 ratio (J20 mice [6]): very slightly increased
- p-tau/tau ratio (J20 mice [6]; great individual variation): slightly higher
- Total tau (J20 mice [6]; largely due to one mouse): decreased
- behavior (NOR analysis of object memory) (J20 mice [6]; single housed J20 mice): slight improvement

- Ki (CRF1; Tertiary, read-out: CRF1 Ki): 15 nM
- solubility (Solubility in DMSO): ~10 mM (≈ 3560 µg/mL)
- PAMPA (PAMPA): 0.44
- brain levels ([4]; after SQ injection or oral delivery): 55 ng/g
SMILES: CCC(COC)n1nnc2c(Nc3ccc(OC)cc3C)nc(C)nc21 (stereo not shown) [Compound J04]
- Tau % (SH-SY5Y cells [1]; Primary (SH-SY5Y)): Unchanged
- p-tau (SH-SY5Y cells [1]; SH-SY5Y cells, no CRF): did lower p-tau, although not significantly
- tau (SH-SY5Y cells [1]; SH-SY5Y cells, no CRF): did not lower

- solubility (Solubility in DMSO): ~10 mM (≈ 3400 µg/mL)
- PAMPA (PAMPA): 0.99
SMILES: CCC(COC)n1nnc2c(Nc3ccc(C)cc3C)nc(C)nc21 (stereo not shown) [Compound J05]

- Ki (CRF1; Tertiary, read-out: CRF1 Ki): > 1000 nM
- solubility (Solubility in DMSO): ~10 mM (≈ 3440 µg/mL)
SMILES: CCC(COC)n1nnc2c(Nc3ccc(F)cc3C)nc(C)nc21 (stereo not shown) [Compound J06]
- Tau % (SH-SY5Y cells [1]; Primary (SH-SY5Y)): Unchanged
- p-Tau (%) (SH-SY5Y cells [2]; [8]): Unchanged

- Ki (CRF1; Tertiary, read-out: CRF1 Ki): > 1000 nM
- solubility (Solubility in DMSO): ~10 mM (≈ 3480 µg/mL)
- PAMPA (PAMPA): 0.72
SMILES: CCC(COC)n1nnc2c(Nc3ccc(F)cc3F)nc(C)nc21 (stereo not shown) [Compound J07]

- Ki (CRF1; Tertiary, read-out: CRF1 Ki): 15 nM
- solubility (Solubility in DMSO): ~10 mM (≈ 3610 µg/mL)
- PAMPA (PAMPA): 1.27
SMILES: CCC(COC)n1nnc2c(Nc3ccc(Cl)cc3C)nc(C)nc21 (stereo not shown) [Compound J08]
- Tau % (SH-SY5Y cells [1]; Primary (SH-SY5Y)): Unchanged
- sAPPα (%) (SH-SY5Y cells [2]; [8]): Unchanged

- solubility (Solubility in DMSO): ~10 mM (≈ 3720 µg/mL)
SMILES: CCC(COC)n1nnc2c(Nc3ccc(OC)cc3OC)nc(C)nc21 (stereo not shown) [Compound J09]
- Tau % (SH-SY5Y cells [1]; Primary (SH-SY5Y)): Unchanged

- solubility (Solubility in DMSO): ~10 mM (≈ 2900 µg/mL)
SMILES: CCC(COC)n1nnc2c(N3CCCC3)nc(C)nc21 (stereo not shown) [Compound J10]
- Tau % (SH-SY5Y cells [1]; Primary (SH-SY5Y)): Unchanged
- p-Tau (%) (SH-SY5Y cells [1]; Primary (SH-SY5Y)): Unchanged
